The target in this test is Adenylate kinase 4, mitochondrial (Homo sapiens) (UniProt P27144). Kind of test: ligand-induced stabilization of human AK3 (AK4) – biophysical, DSF, SYPRO orange (AID 380). Particulars: recombinant protein, DSF SYPRO orange thermal shift; at 5 µM; protein 1 µM; buffer 10 mM HEPES; active compounds read high.

This note sets out measurements from PubChem BioAssay AID380.

Adenylate kinase 4, mitochondrial (Homo sapiens), sequence (P27144 whole entry, looked up): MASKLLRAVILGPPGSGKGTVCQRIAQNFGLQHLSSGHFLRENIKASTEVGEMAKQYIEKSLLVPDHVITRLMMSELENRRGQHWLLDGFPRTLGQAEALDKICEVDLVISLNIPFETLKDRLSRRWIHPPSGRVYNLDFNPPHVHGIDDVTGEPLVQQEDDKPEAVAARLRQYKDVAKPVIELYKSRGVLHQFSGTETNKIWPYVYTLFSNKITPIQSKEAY

As for `Nc1ncnc2c1ncn2[C@@H]1O[C@H](COP(=O)(O)OP(=O)(O)OP(=O)(O)OP(=O)(O)OP(=O)(O)OC[C@H]2O[C@@H](n3cnc4c(N)ncnc43)[C@H](O)[C@@H]2O)[C@@H](O)[C@H]1O`, the Tm shift was 17.2 Celsius.
